Experimental findings from publication PMC6834145, “Identification of a Novel Oligosaccharide in Maple Syrup as a Potential Alternative Saccharide for Diabetes Mellitus Patients” (International Journal of Molecular Sciences, 2019) are described below.

pIC50: −log10 of the molar value.

In assay [1] the target is T1, Invertase from Candida utilis (Williopsis jadinii, UniProt O94224).
T1 construct: gene INV1; commercial native enzyme, Seikagaku Biobusiness Corporation
T1 sequence (O94224 1-533): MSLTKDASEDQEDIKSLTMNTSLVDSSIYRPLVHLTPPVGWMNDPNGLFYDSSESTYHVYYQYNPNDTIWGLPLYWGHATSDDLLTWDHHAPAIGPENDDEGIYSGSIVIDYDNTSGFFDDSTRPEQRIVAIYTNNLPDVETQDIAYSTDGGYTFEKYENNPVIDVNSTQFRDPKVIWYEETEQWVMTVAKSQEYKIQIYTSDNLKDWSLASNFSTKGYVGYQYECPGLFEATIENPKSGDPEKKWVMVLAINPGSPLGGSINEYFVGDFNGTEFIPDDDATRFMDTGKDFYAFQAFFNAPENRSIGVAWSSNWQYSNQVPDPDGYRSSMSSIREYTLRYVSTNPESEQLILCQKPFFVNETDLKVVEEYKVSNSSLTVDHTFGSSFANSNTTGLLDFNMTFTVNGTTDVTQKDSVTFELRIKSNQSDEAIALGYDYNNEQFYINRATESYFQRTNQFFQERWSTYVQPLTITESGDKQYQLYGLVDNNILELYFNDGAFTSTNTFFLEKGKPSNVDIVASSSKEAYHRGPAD
Nature of the assay: glucose release from sucrose, capillary electrophoresis of PMP derivatives. The assay is classed as biochemical. Particulars: substrate sucrose (100 µg), acetate buffer pH 4.5, 15 min. The source says:
glucose release from sucrose, capillary electrophoresis of PMP derivatives on Invertase from Candida utilis

The target in assay [2] is T2, maltase (α-(1-4) glucosidase) from Saccharomyces.
T2 construct: gene MAL12; commercial enzyme, Sigma-Aldrich Japan
Description: glucose release from maltose, capillary electrophoresis of PMP derivatives. The assay is classed as biochemical. Particulars: substrate maltose; citric buffer pH 6.8 or acetate buffer pH 4.5 (text does not assign clearly), 15 min. The text has this:
glucose release from maltose, capillary electrophoresis of PMP derivatives on maltase (α-(1-4) glucosidase) from Saccharomyces

In the case of `OC[C@H]1OC(O)[C@H](O)[C@@H](O)[C@@H]1OC[C@H]1OC(O)(CO)[C@@H](O)[C@@H]1O` (some centres unmarked) [maplebiose1], the pIC50 (usually −log10 of the IC50, conventionally taken in molar units) in assay [1] was 2.93; in assay [2] it was 2.76.
